Reference: PMC4879473 (CPT: Pharmacometrics & Systems Pharmacology, 2016)
Blank lines part the entries; values can stand above or below the compound they belong to.

How the values were obtained:
[1] = test system: CYP3A; settings: individual CYP enzymes and human liver microsomes in vitro; cited from earlier work
[2] = cited from earlier work
[3] = Apparent permeability of naloxegol in Caco-2 cells; format: in vitro ADME; settings: human
[4] = Naloxegol blood/plasma, microsomal and gut binding inputs; format: in vitro ADME; settings: plasma
[5] = cited from earlier work; remark: listed apart in the source
[6] = Physicochemical properties of naloxegol; settings: Experimental data
[7] = test system: CYP3A4; experiment: Retrograde calculation of naloxegol metabolic intrinsic clearance; design: species or system human
[8] = target: CYP3A (Homo sapiens, UniProt P08684); settings: ciprofloxacin at 2 mM, in vitro; cited from earlier work
Chain of CYP3A (Homo sapiens, UniProt P08684) (P08684 2-503): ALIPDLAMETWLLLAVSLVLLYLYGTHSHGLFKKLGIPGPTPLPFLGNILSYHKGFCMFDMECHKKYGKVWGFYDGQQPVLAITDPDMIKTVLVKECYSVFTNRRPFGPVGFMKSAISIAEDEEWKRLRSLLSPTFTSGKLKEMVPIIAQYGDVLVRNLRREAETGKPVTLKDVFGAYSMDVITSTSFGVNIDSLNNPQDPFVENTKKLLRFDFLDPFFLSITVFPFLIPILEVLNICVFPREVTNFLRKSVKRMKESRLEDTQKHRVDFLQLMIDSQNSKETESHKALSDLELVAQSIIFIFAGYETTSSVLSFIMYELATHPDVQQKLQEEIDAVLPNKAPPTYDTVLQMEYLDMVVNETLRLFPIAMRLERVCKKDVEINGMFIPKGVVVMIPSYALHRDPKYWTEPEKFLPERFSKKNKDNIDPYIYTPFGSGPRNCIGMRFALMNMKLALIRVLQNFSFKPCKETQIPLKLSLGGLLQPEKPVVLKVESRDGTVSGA

[9] = test system: CYP3A/P‐gp; settings: clinical DDI studies; cited from earlier work
[10] = test system: P‐gp; settings: reported value, P-gp-mediated efflux; cited from earlier work

- Papp [3]: 4.55 ×10⁻⁶ cm/s
- fraction unbound [4]: 0.958
- pKa [6]: 8.45
- CYP3A4 CLint ([7]; Retrograde calculation): 0.267 μL/min/pmol protein
- microsomal CLint ([7]; human): 36.6 µL/min/mg
SMILES: C=CCN1CC[C@]23c4c5ccc(O)c4O[C@H]2[C@@H](OCCOCCOCCOCCOCCOCCOCCOC)CC[C@@]3(O)[C@H]1C5 [naloxegol]
- CYP enzymes metabolizing naloxegol [1]: metabolized primarily by CYP3A
- parent drug excreted in urine ([2]; 27 mg [14C]naloxegol oral solution, healthy male volunteers): < 6 % of the dose
- dose linearity of PK ([2]; dose of up to 1,000 mg): linear or near linear
- CLR ([2]; renal clearance from the renal impairment study): 4.74 L/h
- CLpo ([2]; total clearance after an oral dose, observed in the ketoconazole DDI study): 150 L/h
- solubility [5]: highly soluble

SMILES: O=C(O)c1cn(C2CC2)c2cc(N3CCNCC3)c(F)cc2c1=O [Ciprofloxacin, ciprofloxacin]
- inhibition of erythromycin‐mediated CYP3A activity [8]: 65%

SMILES: CC(=O)N1CCN(c2ccc(OCC3COC(Cn4ccnc4)(c4ccc(Cl)cc4Cl)O3)cc2)CC1 (centres unmarked) [Ketoconazole, ketoconazole]
- observed increase of naloxegol AUC [9]: 1,185%

SMILES: C[C@H]1O[C@@H](O[C@H]2[C@@H](O)C[C@H](O[C@H]3[C@@H](O)C[C@H](O[C@H]4CC[C@@]5(C)[C@H](CC[C@@H]6[C@@H]5C[C@@H](O)[C@]5(C)[C@@H](C7=CC(=O)OC7)CC[C@]65O)C4)O[C@@H]3C)O[C@@H]2C)C[C@H](O)[C@@H]1O [digoxin]
- in vitro transporter‐mediated intrinsic clearance [10]: 2.5 µL/min
